According to US10918727B2, “Peptide with ability to penetrate cell membrane” (ICURE BNP CO., LTD., priority 2016, dated 2021):
Non-standard residues stand in square brackets, D forms with d. No end group written: not given here.

Assays:
[1] = test system: hair follicle and dermis of the skin (male BALB/c mice); test: Hair follicle penetration of FITC-labeled TCTP-PTD after transdermal administration (fluorescence microscopy); type: in vivo, mouse; conditions: 100 μl of 100 μM FITC-labeled peptide on 1 cm^2, 2 hours
Experimental: (§1) Male BALB/c mice (7-8-week-old) were prepared, and the abdominal region of the mice was shaved. Next, the mice were anesthetized by intraperitoneal injection of urethane (1.2-1.5 g/kg), and then 100 μl of each TCTP-PTD peptide solution was applied to the abdominal region of each mouse so as to be administered transdermally. Each of the peptide solutions was applied to an area of 1 cm^2.
2 hours after transdermal administration, the skin tissue was collected, fixed with 10% formalin for about 24 hours, and then treated with 30% sucrose solution for 4 hours. The pretreated skin tissue was immersed in OCT-compound, and then treated with liquid nitrogen to prepare a frozen block. The skin tissue was sectioned to a thickness of 20 μm by use of a cryotome and attached to a slide. The slide having the skin tissue attached thereto was washed five times with PBS, and then the nucleus was stained with DAPI (blue fluorescence).
The amino terminus of L-PTD 13 or D-PTD 13 was labeled with FITC (green fluorescence), and then each PTD peptide was dissolved in PBS (phosphate buffered saline, pH 7.4) to a final concentration of 100 μM.
as §1, with “of the FITC-labeled L-PTD 13 or D-PTD 13” for “TCTP-PTD peptide”

[2] = test system: type 2 diabetic model mice (db/db mice); test: Blood glucose-lowering effect of intranasal TCTP-PTD/Ex-4 mixture in type 2 diabetic model mice after i.p. glucose; type: in vivo, mouse; conditions: Ex-4 10 μg/kg, 10 μM Ex-4 + 20 μM peptide, glucose 2.5 g/kg i.p., monitored 240 minutes
Experimental: Male db/db mice weighing 31-34 g were used as experimental animals. The mice were fasted overnight, and then the blood glucose level in the mice were measured using a blood glucose meter.
20 minutes after anesthesia, each of the prepared Ex-4/TCTP-PTD mixtures was administered intranasally to the mice (Ex-4 dose: 10 μg/kg), and a control group was administered intranasally with the same amount of Ex-4, and a negative control group was administered intranasally with the same amount of PBS. After 15 minutes, glucose (2.5 g/kg) was injected intraperitoneally to the mice, and the blood glucose level in the mice was monitored for 240 minutes.

[3] = test system: cervical cancer cell line HeLa; test: Cell membrane penetration of FITC-labeled TCTP-PTD peptides in HeLa cells (fluorescence reader); type: cell-based; conditions: 10 μM FITC-labeled peptide, 15 minutes
Experimental: The cervical cancer cell line HeLa was prepared. To detect TCTP-PTD accumulated in cells after passage through the cell membrane, the N-terminus of the synthesized peptide was labeled with FITC (fluorescein isothicyanate). Then, the cervical cancer cell line Hela was treated with 10 μM of the FITC-labeled TCTP-PTD of SEQ ID NO: 18, SEQ ID NO: 22, SEQ ID NO: 24 or SEQ ID NO: 27 for 15 minutes. After completion of the incubation, the cells were washed three times with PBS to remove FITC-TCTP-PTD remaining on the cell membrane of the HeLa cells. 500 μl of PBS was added, and then the fluorescence intensity of the FITC was measured with a fluorescence reader at 495 nm and 517 nm.

[4] = test system: human bronchial epithelial cell line BEAS-2B; test: Cell membrane penetration of FITC-labeled L-/D-form TCTP-PTD 13 by flow cytometry; type: cell-based; conditions: BEAS-2B cells, 2.5 μM FITC-labeled peptide, 30 minutes
Experimental: The human bronchial epithelial cell line BEAS-2B was prepared, and the cell membrane penetration ability of the TCTP-PTD peptide according to the amino acid type was analyzed by flow cytometry. Specifically, BEAS-2B cells were seeded on a 6-well plate at a density of 8×10^5 cells/well, and then cultured in cell culture medium (BEGM) for 24 hours. After 24 hours of cell culture, each well was washed twice with PBS, and then each well was treated with FITC-labeled L-form TCTP-PTD 13 (hereinafter referred to as L-PTD 13; SEQ ID NO: 27) or FITC-labeled D-form TCTP-PTD 13 (hereinafter referred to as D-PTD 13; SEQ ID NO: 27) diluted in cell culture medium such that the concentration of each TCTP-PTD would be 2.5 μM. 30 minutes after the cells were treated with the two kinds of TCTP-PTD 13, the cells were isolated from each well by use of 0.25% trypsin, and then washed 6 times with cold PBS to remove TCTP-PTD from the cell surface.

[5] = test system: nasal mucosal membrane (female BALB/c mice); test: Penetration of OVA into nasal mucosal epithelial cells after intranasal OVA/TCTP-PTD 13 mixture (immunofluorescence); type: in vivo, mouse; conditions: intranasal 10 μl, OVA 10 μM (4.5 μg), OVA:PTD 1:30, 15 minutes
Experimental: First, OVA and L-PTD 13 or D-PTD 13 were dissolved in PBS (phosphate buffered saline, pH 7.4) such that the concentrations of OVA and TCTP-PTD would be 10 μM and 300 μM, respectively, thereby preparing mixtures. Herein, OVA and TCTP-PTD were mixed at a molar ratio of 1:30.
Female BALB/c mice (6-8-week-old) were anesthetized by intraperitoneal injection of 50 mg/kg of zoletil and 10 mg/kg of xylazine.
10 μl of OVA, the OVA/D-PTD 13 mixture or the OVA/L-PTD 13 mixture was administered intranasally to each of the anesthetized mice. A control group was administered with 4.5 μg of OVA alone.
15 minutes after intranasal administration, the nasal tissue was collected. The collected nasal tissue was fixed with 10% formalin for about 24 hours, and then decalcified using 4 M formic acid at 4° C. for 30 hours. After decalcification, the nasal tissue was embedded in paraffin according to a conventional method, sectioned to a thickness of 5 μm, and attached to a slide. […] After incubation with the primary antibody, the slide was washed with PBS, and then incubated with a 1:100 dilution of secondary antibody (green fluorescence; Alexa 488-conjugated secondary antibodies, Invitrogen) at room temperature for 1 hour. The slide was washed with PBS, and then the nucleus was stained with DAPI (blue fluorescence), followed by observation with a fluorescence microscope.

[6] = Body weight-reducing effect of intranasal TCTP-PTD 13-[D-Leu-4]-OB3; type: in vivo, mouse; conditions: for body weight after 10 days compared with PBS or OB3 / rate of increase in body weight for 10 days compared with PBS or OB3: ICR mice, intranasal 2 mg/kg once each day for 10 days
Description: A peptide (SEQ ID NO: 124) comprising [D-Leu-4]-OB3 linked to L-PTD 13 or D-PTD 13 by a GG linker was designed. Furthermore, peptides (SEQ ID NO: 125, SEQ ID NO: 126 and SEQ ID NO: 127, respectively) comprising [D-Leu-4]-OB3 linked to each of D-TCTP-PTD 13M1, D-TCTP-PTD 13M2 or D-TCTP-PTD 13M3 by a GG linker were designed. The peptides were synthesized with a purity of 90% or higher by Peptron Inc.
4-week-old male ICR mice were used as experimental animals and divided into the following groups, each consisting of 7 animals: PBS, [D-Leu-4]-OB3, L-PTD 134D-Leu-41-OB3, and D-PTD 134D-Leu-41-OB3 groups. Each of [D-Leu-4]-OB3, L-PTD 134D-Leu-41-OB3 and D-PTD 13-[D-Leu-4]-OB3 was administered intranasally to each mouse at a dose of 2 mg/kg once each day for 10 days at a uniform time point, while a change in the body weight of each of the experimental animals was measured.

[7] = Appetite-inhibiting effect (food intake) of intranasal TCTP-PTD 13-[D-Leu-4]-OB3; type: in vivo, mouse; conditions: ICR mice, intranasal 2 mg/kg; for cumulative food intake compared with PBS: measured every day for 10 days
Experimental: In order to examine whether or not the body weight-reducing effect confirmed in Example 7-2 has a connection with a decrease in food intake, PBS, [D-Leu-4]-OB3, L-PTD 13-[D-Leu-4]-OB3 or D-PTD 13-[D-Leu-4]-OB3 was administered intranasally at a dose of 2 mg/kg, and the food intake was measured everyday for 10 days.

[8] = test system: type 1 diabetic model mice (STZ-induced male ICR mice); test: Blood glucose-lowering effect of intranasal TCTP-PTD/insulin mixture in type 1 diabetic model mice; type: in vivo, mouse; conditions: insulin 2 IU/kg, insulin:peptide 1:2, monitored 240 minutes
Experimental: Streptozotocin (STZ) was injected intraperitoneally into male ICR mice (body weight: 33-34.5 g) four times (doses: 100, 50, 50 and 50 mg/kg) at 2-day intervals to induce type 1 diabetes. At 7 days after last administration of STZ, mice having a blood glucose level of 300-350 mg/dL were selected as experimental animals.

[9] = test system: normal male white Wistar rats; test: Pharmacodynamic profile of nasal insulin formulations in normal white rats (blood glucose); type: in vivo, rat; conditions: subcutaneous
Experimental: After design of the nasal insulin formulations, evaluation of the pharmacodynamic profile of each nasal insulin formulation was performed in normal white rats. Specifically, male white Wistar rats weighing 165-200 g were used as experimental animals. For accuracy of evaluation, the […] were fasted overnight, and then white rats having a blood glucose level of 90-120 mg/dL in the fasted state were used in the experiment. To calculate PA (pharmacological availability), the initial blood glucose level was taken as 100%. To administer the nasal insulation formulations, the mice were anesthetized by intraperitoneal administration of the anesthetic sodium pentobarbital (dose: 65 mg/kg).

[10] = Plasma insulin concentration after intranasal administration of insulin/TCTP-PTD mixtures (ELISA); conditions: rats, insulin 0.5 IU/kg, 50 μM insulin + 100 μM peptide, peptides compared with SEQ ID NO: 27
Description: Male Wistar rats weighing 180-190 g were used as experimental animals and anesthetized in the same manner as described above.

[11] = test system: type 1 diabetic white rats (alloxan-induced); test: Pharmacodynamic profile of nasal insulin formulations in type 1 diabetic (alloxan) rats; type: in vivo, rat; conditions: type 1 diabetic rats
Experimental: Alloxan was injected intraperitoneally to experimental white rats to induce type 1 diabetes. One week after alloxan administration, white rats having a blood glucose level of 230-300 mg/dL were used as experimental animals.

[12] = Pharmacokinetic profile of nasal insulin formulations (plasma insulin); conditions: rats

## SEQ ID NO: 12: variant TCTP-PTD peptide (MIIFRLAAYHKK; PTD #12)
[1]
  penetration to hair follicle and dermis of the skin: reached the hair follicle and dermis of the skin

## SEQ ID NO: 27: TCTP-PTD peptide of Korean Patent No. 10-0859972, basis of the variants (MIIFRALISHKK; PTD #27)
[2]
  blood glucose level after i.p. glucose / blood glucose-lowering effect: increase the blood glucose-lowering effect of Ex-4
[3]
  fluorescence of FITC-labeled peptide in cells (cell membrane penetration): high level of fluorescence

## SEQ ID NO: 17: variant TCTP-PTD peptide (MIIFRIAAYPKK; PTD #17)
[1]
  penetration to hair follicle and dermis of the skin: reached the hair follicle and dermis of the skin

## L-PTD 13: L-form TCTP-PTD 13; SEQ ID NO: 27 (MIIFRALISHKK; PTD #27)
[4]
  ability to penetrate the cell membrane (flow cytometry): excellent ability to penetrate the cell membrane
[1]
  penetration to hair follicle and dermis of the skin: reached the hair follicle and dermis of the skin

## SEQ ID NO: 1: variant TCTP-PTD peptide (LIIFRALISHKK; PTD #1)
[1]
  penetration to hair follicle and dermis of the skin: reached the hair follicle and dermis of the skin

## ovalbumin [OVA (ovalbumin), 45 kDa, model antigen for vaccination]
[5]
  OVA fluorescence inside the nasal mucosal membrane: not substantially observed inside the nasal mucosal membrane

## D-PTD 13-[D-Leu-4]-OB3: peptide (SEQ ID NO: 124) comprising [D-Leu-4]-OB3 linked to D-PTD 13 by a GG linker ([dM][dI][dI][dF][dR][dA][dL][dI][dS][dH][dK][dK]GGSCS[dL]PQT)
[6]
  body weight after 10 days compared with PBS or OB3: decreased
  rate of increase in body weight for 10 days compared with PBS or OB3: lower
[7]
  total food intake after 10 days of administration: decreased
  cumulative food intake compared with PBS: decreased continuously

## insulin
[8]
  change in blood glucose level: no significant change in the blood glucose level
[9]; insulin 0.5 IU/kg
  AAC 0-180 min (area above the blood glucose level-time curve): 2560
[9]; insulin 0.5 IU/kg (reference)
  PA % (pharmacological availability): 100%
[10]
  blood insulin concentration / insulin uptake: little or no change in the blood insulin concentration
[11]; nasal, insulin 2 IU/kg
  AAC 0-240 min (area above the blood glucose level-time curve): 2156.65 ± 1070.68
[11]; subcutaneous, insulin 1 IU/kg
  AAC 0-240 min (area above the blood glucose level-time curve): 26897.33 ± 772.31
[11]; subcutaneous, insulin 1 IU/kg (reference)
  PA %: 100%
[12]; nasal, insulin 5 IU/kg, listed as Free insulin
  BA % (relative bioavailability vs s.c. insulin): 3.34 ± 0.38%
[12]; subcutaneous, insulin 0.25 IU/kg (reference)
  BA %: 100%

## L-PTD 13-[D-Leu-4]-OB3: peptide (SEQ ID NO: 124) comprising [D-Leu-4]-OB3 linked to L-PTD 13 by a GG linker (MIIFRALISHKKGGSCS[dL]PQT)
[6]
  body weight after 10 days compared with PBS or OB3: decreased
  rate of increase in body weight for 10 days compared with PBS or OB3: lower
[7]
  total food intake after 10 days of administration: decreased
  cumulative food intake compared with PBS: decreased continuously

## D-PTD 13: D-form TCTP-PTD 13; SEQ ID NO: 27 ([dM][dI][dI][dF][dR][dA][dL][dI][dS][dH][dK][dK])
[4]
  ability to penetrate the cell membrane (flow cytometry): excellent ability to penetrate the cell membrane
[6]; peptide linked to [D-Leu-4]-OB3, intranasal 2 mg/kg, 10 days, results of Examples 7-2 and 7-3 together
  body weight-reducing and appetite-inhibiting effects, D-form vs L-form: better effects than L-PTD 13
[1]
  penetration to hair follicle and dermis of the skin: reached the hair follicle and dermis of the skin
